Experiments:
[1] = system: B-CLL cells; assay: Biosynthesis of LTB4 by intact B-CLL cells (HPLC analysis); assay type: cell-based, human; conditions: intact cells preincubated with diamide (100 μM, two minutes), then A23187 (1 μM) and arachidonic acid (40 μM); mean of six experiments; without diamide 2.6±0.8
Protocol: pre-incubated (intact cells) with diamide (100 μM) for two minutes, followed by stimulation with A23187 (1 μM) and arachidonic acid (40 μM).
10×10^6 cells were suspended in 1 mL PBS and pre-incubated for two minutes with/without azodicarboxylic acid bis(dimethylamide), abbreviated diamide, (100 μM) prior to stimulation with arachidonic acid (40 μM) and/or calcium ionophore A23187 (1 μM). The cells were stimulated for five minutes at 37° C. and the incubations were terminated with 1 mL methanol.
After addition of 0.5 ml PBS and the internal standard PGB1 (100 pmol) to the samples, the cells were centrifuged (2500 rpm, 5 min). The supernatant was subsequently subjected to solid phase extraction on Chromabond C18 columns (200 mg, Macherey & Nagel). The methanol eluate was analysed on Waters Alliance 2695 reverse phase HPLC and detected with Waters PDA 996. Methanol:water:trifiuoroacetic acid (70:30:0.007, v/v) was used as mobile phase at a flow rate of 1.2 mL/min. Qualitative analysis was performed by comparison of retention times of synthetic standards and quantitative determinations were performed by computerized integration of the area of eluted peaks.

[2] = system: B-CLL cells; assay: DNA synthesis (3H-thymidine incorporation) in B-CLL cells activated by CD40L-L cells, 96 hr co-culture; assay type: cell-based, human
Protocol: FIG. 3 depicts the effects of leukotriene biosynthesis inhibitors on CD40L-induced thymidine incorporation in B-CLL cells. B-CLL cells (2×10^5) were co-cultured with either irradiated L cells alone (L), irradiated CD40L-L cells or irradiated CD40L-L cells plus indicated inhibitor for 96 hr. When inhibitors were used, B-CLL cells were pre-treated with the inhibitor for 30 min prior co-culturing with L cells or CD40L-L cells. The inhibitors used were: […]. The control result reported in the Figure represents B-CLL cells co-cultured with irradiated CD40L-L cells alone. ^3H-thymidine (1 μCi) was present for the final eight hours. Activation of B-CLL cells with CD40L-L treatment led to between 3580 and 15369 cpm (^3H-thymidine) incorporation (control) in different experiments. This was set as 100% in each experiment. […] Student's t-test was used to calculate statistics i.e. control vs. control plus indicated compound(s) (** P<0.01, *** P<0.001). B-cells were isolated from patients suffering with B-CLL or B-prolymphocytic leukemia (B-PLL) who had not received chemotherapy within during the previous six weeks (see Table 1 below). Peripheral blood samples were obtained after informed consent and with local ethics committee approval. Blood samples were Ficoll-Isopaque purified and washed twice in phosphate buffered saline (PBS). After that, cells were either frozen in PBS with 50% human AB serum and 10% dimethylsulfoxide or analyzed fresh. Frozen cell samples were thawed and washed in ice cold fetal calf serum and subsequently in PBS before analysis. Cells from two patients were used twice, both freshly isolated cells and after freezing with similar results. […]. The purity of the isolated cells was estimated by flow cytometric analysis (with FACS Calibur, Becton Dickinson, Mountain View, Calif.). Morphological analysis was performed after staining with May-Grunewald/Giemsa solution. The purity of B-CLL and B-PLL cells was >98%. Purified B-CLL cells were cultured in RPMI 1640 medium, supplemented with 10% FCS, 2 mM L-glutamine, 100 U/mL penicillin and 100 μg/mL streptomycin and incubated at […] in an atmosphere of 5% CO2. 2×10^5 of B-CLL cells were seeded in 200 μL medium in 96-well plates. B-CLL cells were pretreated with MK-886 (a specific FLAP inhibitor) (10^−6 to 10^−9 M) or BWA4C (a specific 5-LO inhibitor) (10^−7 to 10^−9 M) for 30 min, before co-culturing with irradiated (15,000 Rad) CD40L expressing L (CD40L-L) cells or control L (L) cells in the presence of inhibitors. LTB4 (10^−7 M) was present in the indicated cultures. Each sample was represented by triplicates. 1 μCi ^3H-thymidine was present in the wells for the final eight […] of the 96 hr cultures. The cells were harvested onto glass fibre filter and radioactivity was measured in a liquid scintillation counter.

[3] = system: B-CLL cells; assay: Flow cytometry (FACS) analysis of CD23, CD54 and CD150 expression in CD40L activated B-CLL cells; assay type: cell-based, human; conditions: for effect on CD40-induced increased expression of CD23, CD54 and CD150: 100 nM, 96 hrs
Protocol: FIG. 4 depicts the effects of leukotriene biosynthesis inhibitors on the expression of CD23, CD54 and CD150 in CD40L activated B-CLL. Purified B-CLL cells were co-cultured with either L cells or CD40L-L cells in the absence or presence of MK886 (10^−7 M), BWA4C (10^−7 M), and/or LTB4 (10^−7 M) for 96 hrs. When inhibitors were used, B-CLL cells were pre-treated with the inhibitor for 30 min prior to co-culturing with L cells or CD40L-L cells. B-CLL cells were collected and analysed by FACS with antibodies against CD23, CD54 or CD150. The figure depicts one typical experiment out of six. […] Cultured (described above) B-CLL cells were collected (without the plastic attached L cells) and used for FACS detection. Surface marker expression was detected by indirect immunofluorescence. One million cells/sample were washed in cold PBS containing 1% FCS and 0.1% sodium azide and then exposed to the relevant antibodies. The cells were washed and incubated with the RPE conjugated secondary antibody. All incubations were done at 4° C. Samples were run on a Becton Dickinson FACScan flow cytometer (Becton Dickinson, Mountain View, Calif.). The CellQuest software (Becton Dickinson) was used both for acquisition and analysis of the samples. Ten thousand events were collected on a FACScan flow cytometer, and the results were analysed using CellQuest (Becton Dickinson) software. Only the viable cells were considered for analysis based on their light scatter (FSC/SSC) characteristics. The following antibodies were used: MAb MHM-6 (anti-CD23, from Dr. M. Rowe, University of Wales, Cardiff, Wales, UK), MAb LB-2 (anti-CD54, from E. A. Clark, University of Washington, Seattle, Wash.), MAb IPO-3 (anti-SLAM, kind gift from S. Sidorenko, Acad. of Science of Ukraine, Kiev, Ukraine) and RPE conjugated rabbit anti-mouse Ig F(ab′)2 (Dako, Copenhagen, Denmark) were used as secondary antibody.

[4] = system: human lung cancer cells; conditions: cited from earlier work
[5] = system: serum proteins; conditions: Can. J. Physiol. Pharmacol. 67, 456 (1989); cited from earlier work
[6] = system: malignant cells from patients with acute or chronic myelogenous leukemia; conditions: cited from earlier work

CN(C)C(=O)/N=N/C(=O)N(C)C [diamide, Azodicarboxylic acid bis(dimethylamide)]
production of LTB4 [1]: 33.5±1.2 pmol/10^6 cells

CCCCC/C=C\C[C@@H](O)/C=C/C=C/C=C\[C@@H](O)CCCC(=O)O [LTB4]
reversal of the inhibitory action of 100 nM BWA4C on thymidine incorporation ([2]; exogenous addition, 150 nM): almost completely reversed | reversal of the inhibitory effect of MK-886 on thymidine incorporation ([2]; exogenously added, 150 nM): almost completely reversed | effect on CD40-induced thymidine incorporation, alone ([2]; final concentration 150 nM, no inhibitor): did not amplify | reversal of the inhibitory effect of the inhibitors (MK-886, BWA4C) on antigen expression ([3]; 150 nM): almost completely reversed | effect alone on the expression of CD23, CD54 and CD150 ([3]; without inhibitor): did not cause any significant effect

CC(C)c1ccc2c(c1)c(SC(C)(C)C)c(CC(C)(C)C(=O)O)n2Cc1ccc(Cl)cc1 [MK-886]
effect on DNA synthesis induced by CD40-ligand stimulation ([2]; 100 nM): markedly inhibited DNA synthesis | inhibition at 0.1 µM ([2]; Homo sapiens, 100 nM inhibitor, CD40L-L stimulated B-CLL cells, 96 hr, read-out: inhibitory action on thymidine incorporation): 38% | inhibition at 1 µM ([2]; Homo sapiens, 1 μM inhibitor, CD40L-L stimulated B-CLL cells, 96 hr, read-out: inhibitory action on thymidine incorporation): 46% | antiproliferative effects [4]: antiproliferative effects | binding to serum proteins [5]: relatively high binding | antiproliferative effects [6]: antiproliferative effects | effect on CD40-induced increased expression of CD23, CD54 and CD150 [3]: markedly counteracted

CC(=O)N(O)C/C=C/c1cccc(Oc2ccccc2)c1 [BWA4C]
effect on thymidine incorporation ([2]; 10 nM): significant inhibitory effect | potency to block DNA synthesis compared with MK-886 ([2]; FIG. 3B): even more potent inhibitor than MK-886 | effect on CD40-induced increased expression of CD23, CD54 and CD150 [3]: markedly counteracted

— patent US20080081835A1, “Use of Ltb4 Inhibitors for the Treatment of B-Cell Leukemias and Lymphomas” (priority 2004, published 2008)
